This is an account of results in patent US5281710A, “Dynemicin analogs: synthesis, methods of preparation and use” (The Scripps Research Institute, priority 1992, dated 1994).

Entries after “also recorded” stand apart in the source; their conditions may differ.

Data set [1] relates to MOLT-4 (Leukemia) cell line. In words: cells. To be noted: Homo sapiens, MOLT-4, Molt-4 leukemia cell line; read-out: IC50. The format is cell-based. The procedure, abridged:
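Values given are IC50s, defined as the compound concentration at which half the treated cells were killed in a sulforhodamine B assay. The panel screened comprised ten to twenty-five tumour lines and seven normal cell preparations.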

In data set [2] the test system is NHDF normal human dermal fibroblasts. The data set can be described thus: cells. The format is cell-based. Particulars: NHDF. On the procedure:
(§1) In addition to the screening already discussed, several of the before-described compounds and chimeras were screened against several or all of a panel of ten to twenty-five cancerous cell lines as target cells and seven "normal" cell preparations. This screening utilized a sulforhodamine B cytotoxidity assay as discussed below.
(§2) IC50 values; i.e., the concentration of Compound required to kill one-half of the treated cells, were then calculated.
NHDF Normal human dermal fibroblasts

Data set [3] concerns SK-Mel-28 melanoma cells. The data set can be described thus: Sulforhodamine B cytotoxicity, SK-Mel-28. The format is cell-based. Particulars: Homo sapiens, SK-MEL-28, SK-Mel-28; read-out: IC50. On the procedure: as §1, §2
For data set [4], the system named is Ovcar-3 ovarian carcinoma cells. In words: Sulforhodamine B cytotoxicity, Ovcar-3. The format is cell-based. Particulars: Homo sapiens, OVCAR-3, Ovcar-3; read-out: IC50. As to the method: as §1, §2
For data set [5], the system named is HT-29 colon carcinoma cells. The data set can be described thus: Sulforhodamine B cytotoxicity, HT-29. Particulars: Homo sapiens, HT-29, colon carcinoma H-29 (Table 4) / HT-29 (Table 5); read-out: IC50. The format is cell-based. On the procedure:
as §1, §2

The subject of data set [6] is MCF-7 breast carcinoma cells. The data set can be described thus: Sulforhodamine B cytotoxicity, MCF-7. The format is cell-based. To be noted: Homo sapiens, MCF7, MCF-7; read-out: IC50. As to the method: as §1, §2
The subject of data set [7] is MCF-7(ADR) breast carcinoma cells. The data set can be described thus: Sulforhodamine B cytotoxicity, MCF-7/ADR. In kind it is cell-based. To be noted: Homo sapiens, NCI/ADR-RES, Adriamycin resistant. As to the method:
as §1, §2

For data set [8], the system named is H-322 lung carcinoma cells. The data set can be described thus: Sulforhodamine B cytotoxicity, H-322. In kind it is cell-based. Particulars: NCI-H322; H-322; read-out: IC50. As to the method:
as §1, §2

Data set [9] relates to Capan-1 pancreatic carcinoma cells. In words: Sulforhodamine B cytotoxicity, Capan-1. The format is cell-based. Particulars: Homo sapiens, CAPAN-1, Capan-1; read-out: IC50. On the procedure:
as §1, §2

Data set [10] has as its system HL-60 promyeocytic leukemia cells. In words: Sulforhodamine B cytotoxicity, HL-60. Particulars: Homo sapiens, HL-60, HL-60; read-out: IC50. The format is cell-based. As to the method: as §1, §2
Data set [11] relates to PC-3 prostate carcinoma cells. In words: Sulforhodamine B cytotoxicity, PC-3. The format is cell-based. To be noted: Homo sapiens. On the procedure:
as §1, §2

The subject of data set [12] is SIHA cervical carcinoma cells. In words: Sulforhodamine B cytotoxicity, SIHA. Particulars: Homo sapiens. In kind it is cell-based. On the procedure:
as §1, §2

Data set [13] has as its system NHEK normal human epidermal keratinocytes. In words: Sulforhodamine B cytotoxicity, NHEK. The format is cell-based. Particulars: normal cells. As to the method:
as §1, §2
NHEK Normal human epidermal keratinocytes

The test system of data set [14] is HMEC human mammary epithelial cells. The data set can be described thus: Sulforhodamine B cytotoxicity, HMEC. In kind it is cell-based. Particulars: Homo sapiens, normal cells. On the procedure:
as §1, §2
HMEC Human mammary epithelial cells

In data set [15] the test system is CHO Chinese hamster ovary cells. In words: Sulforhodamine B cytotoxicity, CHO. Particulars: Cricetulus griseus; CHO, normal cells. The format is cell-based. On the procedure:
as §1, §2

The nature of data set [16]: Water solubility. The format is physicochemical.
Data set [17] concerns φX174 Form I DNA. To be noted: literature; cited from earlier work.
For data set [18] the following is noted: mice, comparison value; cited from earlier work.
The subject of data set [19] is cancer cell lines. The data set can be described thus: cells. In kind it is cell-based. To be noted: Average data obtained from 5~10 cell lines; read-out: IC50 (average).
In data set [20] the test system is MB49 murine bladder carcinoma cells. The data set can be described thus: 6-well cytotoxicity assay, MB49. In kind it is cell-based. To be noted: MB-49. As to the method: MIA PaCa-2 cells, MB-49, CV-1 or WI-38 cells were loaded into each well of a 6-well plate at a density of 100,000 cells/well in 3 ml culture medium. They were incubated for 4 hours (37° C., 7 percent CO2). Then 6 microliters of solution containing a compound to be assayed were added into 3 ml of medium (RPMI-1640, with 5 percent fetal bovine serum and 1 percent glutamine) in a 500X dilution so that in one well ethanol was added to make a 0.2 percent ethanol control. The plates were then incubated for 4 days (37° C., 7 percent CO2). The medium was then drained, crystal violet dye (Hucker formula) was added to cover the well bottoms and then they were rinsed with tap water until rinses were clear. The stained cells were solubilized for quantitation with Sarkosyl solution (N-Lauryl sarcosine, 1 percent in water) at 3 ml/well. The absorbance of the solution was then read at 590-650 nm.

Broadly, the IC50 is the concentration at which inhibition is half-maximal. Regarding `C[N+](C)(C)CC(=O)OCCOc1ccc2c(c1)[C@@]13O[C@]14CCC[C@H]3C#C/C=C\C#C[C@@H]4N2C(=O)OCCS(=O)(=O)c1ccccc1` (relative stereo) [Compound 250], the IC50 in [1] was approximately 100000 nM; in data set [2] (Homo sapiens, normal cells, read-out: IC50), 6300 nM; in data set [3] it was 3100 nM; in data set [4], more than 98 nM; in [5], 190 nM; in data set [6], more than 98 nM. For the same compound, the IC50 in [7] is 190 nM; in data set [8], 13000 nM; in [9], more than 98 nM; in data set [10] it was more than 98 nM; in data set [11] it was 1600 nM; in data set [12], more than 98 nM. For the same compound, the IC50 turned out to be 1600 nM in data set [13], 3100 nM in data set [14] and 98 nM in data set [15]. Besides, the water solubility result in data set [16] is on record as “enhanced water solubility as compared to Compound 153; also recorded: more water soluble derivative of Compound 153”.
In general, LD50 refers to the dose at which mortality reaches 50%. On to `CCN[C@H]1CO[C@@H](O[C@H]2[C@H](O[C@H]3C#C/C=C\C#C[C@]4(O)CC(=O)C(NC(=O)OC)=C3/C4=C\CSSSC)O[C@H](C)[C@@H](NO[C@H]3C[C@H](O)[C@H](SC(=O)c4c(C)c(I)c(O[C@@H]5O[C@@H](C)[C@H](O)[C@@H](OC)[C@H]5O)c(OC)c4OC)[C@@H](C)O3)[C@@H]2O)C[C@@H]1OC` [Calicheamicin], for which the IC50 in [2] (control drugs, read-out: Range of Average IC50 Values, NHDF) was 2.5 nM. In data set [17], the “DNA cleavage sequence specificity” value is “double DNA strand cuts at specific sequences”. The 50% lethal dose (LD50) in [18] was 5 µg/kg.
In the case of `O=C(Oc1ccccc1)N1c2ccccc2C23OC24CCCC3(O)C#C/C=C\C#CC14` (stereo not drawn) [Compound 2], the IC50 in [19] was 6300 nM. Also, in data set [20], the anti-tumor cell activity entry is “more active against the cancerous MB-49 cells than against non-transformed CV-1 African green monkey kidney cells (ATCC CCL 70) or WI-38 human lung cells”.
